Assay results: US20240239767A1 (AstraZeneca AB, priority 2022, published 2024)

Columns and labels:
[1] = molecular target: T1, potassium ion channel hERG (human Ether-á-go-go-Related Gene) (Homo sapiens, UniProt Q12809); experiment: Assay 5 - hERG assay (SyncroPatch 384PE patch clamp, CHO cells); type: cell-based; details: geometric mean, CHO cells over-expressing hERG, read-out: Assay 5 (hERG Hu CHO IF EPh CR-Syncro) GMean IC50
T1 construct: expressed in transfected cells; host or cells: Chinese hamster ovary K1 (CHO)
T1 sequence (Q12809 whole entry): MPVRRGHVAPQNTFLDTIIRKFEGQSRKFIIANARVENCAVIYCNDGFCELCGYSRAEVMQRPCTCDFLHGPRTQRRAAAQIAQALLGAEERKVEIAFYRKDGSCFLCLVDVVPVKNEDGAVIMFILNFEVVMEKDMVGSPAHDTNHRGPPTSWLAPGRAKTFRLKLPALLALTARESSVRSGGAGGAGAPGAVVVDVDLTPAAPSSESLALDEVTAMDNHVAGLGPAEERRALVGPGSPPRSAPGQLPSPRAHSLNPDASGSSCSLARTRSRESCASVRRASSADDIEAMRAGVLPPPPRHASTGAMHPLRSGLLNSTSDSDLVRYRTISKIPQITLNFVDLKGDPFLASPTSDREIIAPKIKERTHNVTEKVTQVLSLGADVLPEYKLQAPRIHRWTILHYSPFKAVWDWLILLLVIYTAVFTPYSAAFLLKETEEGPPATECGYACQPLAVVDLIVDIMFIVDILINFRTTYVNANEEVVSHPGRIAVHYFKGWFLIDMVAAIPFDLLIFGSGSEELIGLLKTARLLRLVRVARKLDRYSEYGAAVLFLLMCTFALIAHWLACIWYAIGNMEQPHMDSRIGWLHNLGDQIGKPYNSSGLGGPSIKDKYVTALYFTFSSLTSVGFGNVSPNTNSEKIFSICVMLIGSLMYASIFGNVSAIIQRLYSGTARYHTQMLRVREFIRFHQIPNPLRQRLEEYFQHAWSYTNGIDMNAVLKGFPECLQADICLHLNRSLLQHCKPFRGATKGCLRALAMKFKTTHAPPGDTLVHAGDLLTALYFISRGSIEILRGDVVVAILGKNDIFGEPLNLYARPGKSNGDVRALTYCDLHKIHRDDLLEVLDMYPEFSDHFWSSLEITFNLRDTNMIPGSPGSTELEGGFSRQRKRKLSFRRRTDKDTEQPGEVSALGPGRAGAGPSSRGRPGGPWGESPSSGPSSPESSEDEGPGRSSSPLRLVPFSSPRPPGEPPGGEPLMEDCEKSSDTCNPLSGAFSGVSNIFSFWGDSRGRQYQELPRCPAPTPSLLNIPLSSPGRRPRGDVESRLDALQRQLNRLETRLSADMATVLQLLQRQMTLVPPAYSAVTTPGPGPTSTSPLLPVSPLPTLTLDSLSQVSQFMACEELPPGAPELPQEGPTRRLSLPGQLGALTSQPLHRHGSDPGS
In short: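 Automated whole-cell patch clamp at room temperature on CHO-K1 cells over-expressing hERG, using K-fluoride/escin internal solution (pH 7.2) and NMDG-containing external solution (pH 7.4). Compounds were tested in a 6-point cumulative format, 0.33% final DMSO. Wells accepted only with seal >30 MegaOhm, Z′>0.4 and current >0.2 nA.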

[2] = molecular target: GSK3b (Glycogen synthase kinase-3 beta) (Homo sapiens, UniProt P49841); experiment: Assay 6 - GSK3b assay (ThermoFisher, FRET Z-Lyte); type: biochemical; details: geometric mean; ATP Conc: 10.000 μM; read-out: Assay 6 (GSK3B FRET-Z-Lyte CR) GMean IC50 (μM) ATP Conc: 10.000
Chain of GSK3b (Glycogen synthase kinase-3 beta) (P49841 whole entry): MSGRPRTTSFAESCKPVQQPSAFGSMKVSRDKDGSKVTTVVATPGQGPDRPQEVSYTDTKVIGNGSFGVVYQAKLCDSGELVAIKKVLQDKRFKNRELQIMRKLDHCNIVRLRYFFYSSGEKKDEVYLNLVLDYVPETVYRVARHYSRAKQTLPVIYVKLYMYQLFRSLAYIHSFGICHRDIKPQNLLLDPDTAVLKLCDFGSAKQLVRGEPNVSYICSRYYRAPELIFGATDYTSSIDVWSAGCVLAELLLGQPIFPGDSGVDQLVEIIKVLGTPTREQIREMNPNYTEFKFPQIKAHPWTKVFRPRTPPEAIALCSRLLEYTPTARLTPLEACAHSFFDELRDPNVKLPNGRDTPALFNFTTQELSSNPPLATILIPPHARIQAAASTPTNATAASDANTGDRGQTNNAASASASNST
In short: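 Z-Lyte FRET kinase assay: 0.22-0.92 ng GSK3β with 2 μM Ser/Thr 09 peptide in 50 mM HEPES pH 7.5, 10 mM MgCl2, 1 mM EGTA, 0.01% BRIJ-35, 60 min at room temperature, then 60 min development. Compounds in 1% DMSO, 10-point 3-fold dilutions from 10 μM; sigmoidal dose-response fit.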

[3] = molecular target: T2, PCSK9 (Homo sapiens, UniProt Q8NBP7, G670E/V474I); experiment: cell-based
Target sequence in this assay (Q8NBP7 31-152): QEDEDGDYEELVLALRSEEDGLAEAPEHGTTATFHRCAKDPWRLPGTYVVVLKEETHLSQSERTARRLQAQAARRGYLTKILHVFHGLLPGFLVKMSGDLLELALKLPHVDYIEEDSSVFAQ
Target sequence in this assay (Q8NBP7 153-692 V474I/G670E): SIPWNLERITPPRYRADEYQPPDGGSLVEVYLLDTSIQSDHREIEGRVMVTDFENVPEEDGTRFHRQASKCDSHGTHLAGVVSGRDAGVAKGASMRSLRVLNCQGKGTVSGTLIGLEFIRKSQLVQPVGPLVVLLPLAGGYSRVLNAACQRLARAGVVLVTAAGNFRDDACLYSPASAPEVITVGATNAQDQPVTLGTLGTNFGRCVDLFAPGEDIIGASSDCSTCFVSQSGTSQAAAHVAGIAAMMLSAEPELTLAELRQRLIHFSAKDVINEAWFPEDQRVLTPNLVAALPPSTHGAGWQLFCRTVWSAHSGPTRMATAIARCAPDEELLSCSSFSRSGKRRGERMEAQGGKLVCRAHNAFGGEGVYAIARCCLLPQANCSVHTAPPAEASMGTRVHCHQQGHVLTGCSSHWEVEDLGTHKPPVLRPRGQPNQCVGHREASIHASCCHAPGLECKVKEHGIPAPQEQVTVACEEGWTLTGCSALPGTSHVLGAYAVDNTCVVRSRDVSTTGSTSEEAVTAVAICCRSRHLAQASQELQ

[4] = molecular target: T2, PCSK9; experiment: biochemical
Target sequence in this assay (Q8NBP7 with tags, fused parts or gaps V474I/G670E): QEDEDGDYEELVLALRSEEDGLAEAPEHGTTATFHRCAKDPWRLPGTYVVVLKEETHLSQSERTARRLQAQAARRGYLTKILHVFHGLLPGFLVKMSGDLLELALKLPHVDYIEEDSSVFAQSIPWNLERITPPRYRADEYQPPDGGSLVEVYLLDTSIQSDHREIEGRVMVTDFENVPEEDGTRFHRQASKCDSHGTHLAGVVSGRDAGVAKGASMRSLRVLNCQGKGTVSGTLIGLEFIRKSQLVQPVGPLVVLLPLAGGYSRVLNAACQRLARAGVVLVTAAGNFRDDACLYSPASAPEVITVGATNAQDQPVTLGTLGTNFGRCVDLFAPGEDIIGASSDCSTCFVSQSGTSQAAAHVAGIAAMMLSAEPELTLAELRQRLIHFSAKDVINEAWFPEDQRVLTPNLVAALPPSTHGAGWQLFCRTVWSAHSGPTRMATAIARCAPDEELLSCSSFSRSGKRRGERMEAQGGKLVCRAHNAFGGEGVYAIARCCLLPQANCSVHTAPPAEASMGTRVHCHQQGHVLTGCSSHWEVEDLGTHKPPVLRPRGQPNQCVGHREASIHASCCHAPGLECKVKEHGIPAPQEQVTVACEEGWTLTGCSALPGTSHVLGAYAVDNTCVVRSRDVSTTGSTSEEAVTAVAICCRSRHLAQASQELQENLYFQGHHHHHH

[5] = molecular target: PCSK9 (Homo sapiens, UniProt Q8NBP7); experiment: Assay 2 - Biophysical human PCSK9 assay (SPR, Biacore); type: binding; design: biotinylated human PCSK9 (31-692)-Avi-His6; details: geometric mean; SPR single-cycle kinetics, 30° C.; read-out: Assay 2 (PCSK9 BIAcore DBA CR) GMean Kd
Chain of PCSK9 (Homo sapiens, UniProt Q8NBP7) (Q8NBP7 31-692): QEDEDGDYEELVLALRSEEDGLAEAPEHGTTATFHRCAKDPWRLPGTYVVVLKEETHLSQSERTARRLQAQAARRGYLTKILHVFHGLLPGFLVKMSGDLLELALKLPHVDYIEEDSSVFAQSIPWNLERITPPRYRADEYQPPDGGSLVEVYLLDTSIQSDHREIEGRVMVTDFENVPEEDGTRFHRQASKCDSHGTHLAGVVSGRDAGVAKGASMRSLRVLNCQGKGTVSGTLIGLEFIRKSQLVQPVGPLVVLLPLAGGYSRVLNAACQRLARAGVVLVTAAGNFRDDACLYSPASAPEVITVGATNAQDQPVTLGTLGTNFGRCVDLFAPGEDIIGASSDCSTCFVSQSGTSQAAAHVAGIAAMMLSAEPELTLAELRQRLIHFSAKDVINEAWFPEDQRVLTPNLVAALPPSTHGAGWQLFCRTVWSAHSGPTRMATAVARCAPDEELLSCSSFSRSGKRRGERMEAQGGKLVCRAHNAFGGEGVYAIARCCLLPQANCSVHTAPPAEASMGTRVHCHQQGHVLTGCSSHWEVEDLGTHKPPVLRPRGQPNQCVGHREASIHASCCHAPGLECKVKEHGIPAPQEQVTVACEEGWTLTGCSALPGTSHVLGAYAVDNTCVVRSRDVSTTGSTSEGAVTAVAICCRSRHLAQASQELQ
Procedure: The SPR binding experiments were performed on a Biacore S200 optical biosensor unit at 30° C. A Series S Sensor Chip SA that is designed to bind biotinylated molecules for interaction analysis in Biacore systems was equilibrated at room temperature prior to use. The running buffer for protein tethering and subsequent ligand binding experiments was 10 mM HEPES pH 7.4, 150 mM NaCl, 0.05% (v/v) Tween 20 pH 7.4.
For the surface tethering of PCSK9, biotinylated human PCSK9 (31-692)-Avi-His6 at a concentration of 0.5 mg/mL was used. Prior to the surface tethering, the surface was exposed to a solution of 50 mM NaOH, 500 mM NaCl via 3 consecutive injections of this solution with a contact time of 60 s and a flowrate of 10 μL min- to remove non-conjugated streptavidin. The PCSK9 protein was diluted to a concentration of 20 μg/mL using running buffer and injected with a contact time of 180-300 s and a flowrate of 10 μL min^−1 over a single flow channel (typically flow channel 2 or flow channel 4) with the aim to achieve protein capture levels of >5000 response units (RU). Remaining biotin binding sites were blocked via 2 consecutive injections of a 10 μM D-biotin solution in running buffer with a contact time of 60 s and a flowrate of 10 μL min^−1 over all flow-channels.
The binding experiments were all performed at a flow rate of 30 μL min^−1 and by employing the method of single-cycle kinetics. This approach involves the sequential injection of a compound concentration series without regeneration steps. A contact time between 90-150 s was selected, which was followed by a 40 min dissociation phase to allow for a proper estimation of the dissociation rate constant. Test compounds were delivered in DMSO at a concentration of 10 mM and a digital dispenser HP D300 was used to set up the compound concentration series using 6 concentrations. The tested concentrations have been 30, 100, 300, 1000, 3000 and 10000 nM. Prior to injecting any compound, the surfaces were equilibrated by injecting running buffer over them in three separate pulses. The data collection rate was set to 10 Hz.
The raw sensorgrams of the compound injections were first subjected to reference subtraction (subtracting the signal from flow channel 1 and/or 3 from the signal from channels 2 and/or 4 respectively) and then blank subtraction (subtracting the signal from injecting DMSO controls from the reference subtracted data). The resulting double-referenced sensorgrams were then fitted using a 1:1 binding interaction model using the manufactures software package to extract kinetic- and affinity data.

Row | Compound | IC50 [1] [nM] | IC50 [2] [µM] | IC50 [3] [nM] | IC50 [4] [nM] | Kd [5] [nM]
1 | O=c1c2sccc2ccn1-c1ccc(N[C@H]2CC[C@H](Nc3nc4cccnc4s3)C2)nc1 [Example 76, 6-(6-(((1S,3S)-3-(Thiazolo[5,4-b]pyridin-2-ylamino)cyclopentyl)amino)pyridin-3-yl)thieno[2,3-c]pyridin-7(6H)-one] | 2570 | > 10 | 55 | 0.4 | 0.1
2 | O=c1ccccn1-c1ccc(N[C@H]2CC[C@H](Nc3nc4cc(CO)cnc4[nH]3)C2)nc1 [Example 61, 6′-(((1S,3S)-3-((6-(Hydroxymethyl)-3H-imidazo[4,5-b]pyridin-2-yl)amino)cyclopentyl)amino)-2H-[1,3′-bipyridin]-2-one] | > 40000 | > 10 | 100 | 8.9 | 11
3 | Cc1cccn(-c2ccc(N[C@H]3CC[C@H](Nc4nc5cccnc5[nH]4)C3)nc2)c1=O [Example 40, 6′-(((1S,3S)-3-((3H-Imidazo[4,5-b]pyridin-2-yl)amino)cyclopentyl)amino)-3-methyl-2H-[1,3′-bipyridin]-2-one] | > 40000 | 8.15 | 90 | 1.6 | 1
4 | O=c1ccccn1-c1ccc(N[C@H]2CC[C@H](Nc3nc4cc(OC(F)F)cnc4[nH]3)C2)nc1 [Example 60, 6′-(((1S,3S)-3-((6-(Difluoromethoxy)-3H-imidazo[4,5-b]pyridin-2-yl)amino)cyclopentyl)amino)-2H-[1,3′-bipyridin]-2-one] | 33000 |  | 41 | 0.6 | 1
5 | COc1ccc(=O)n(-c2ccc(N[C@H]3CC[C@H](Nc4nc5cccnc5s4)C3)nc2)c1 [Example 25, 5-Methoxy-6′-(((1S,3S)-3-(thiazolo[5,4-b]pyridin-2-ylamino)cyclopentyl)amino)-2H-[1,3′-bipyridin]-2-one] | > 40000 | 0.053 | 51 | 5.6 | 4
6 | O=c1ccccn1-c1ccc(N[C@H]2CC[C@H](Nc3nc4cccnc4s3)C2)nc1 [Example 19, 6′-(((1S,3S)-3-(Thiazolo[5,4-b]pyridin-2-ylamino)cyclopentyl)amino)-2H-[1,3′-bipyridin]-2-one] | > 40000 | > 10 | 157 | 4.4 | 4
7 | O=C(O)c1ccc(=O)n(-c2ccc(N[C@H]3CC[C@H](Nc4nc5cccnc5[nH]4)C3)nc2)c1 [Example 44, 6′-(((1S,3S)-3-((3H-Imidazo[4,5-b]pyridin-2-yl)amino)cyclopentyl)amino)-2-oxo-2H-[1,3′-bipyridine]-5-carboxylic acid] | > 40000 | 7.91 | 82 | 4.1 | 4
8 | O=c1ccc2cccnc2n1-c1ccc(N[C@H]2CC[C@H](Nc3nc4cccnc4[nH]3)C2)nc1 [Example 34, 1-(6-(((1S,3S)-3-((3H-Imidazo[4,5-b]pyridin-2-yl)amino)cyclopentyl)amino)pyridin-3-yl)-1,8-naphthyridin-2(1H)-one] | > 40000 | > 10 | 98 | 1.2 | 1
9 | O=c1ccccn1-c1ccc(N[C@H]2CC[C@H](Nc3nc4cccnc4[nH]3)C2)nc1 [Example 46, 6′-(((1S,3S)-3-((3H-Imidazo[4,5-b]pyridin-2-yl)amino)cyclopentyl)amino)-2H-[1,3′-bipyridin]-2-one] | > 40000 | 0.425 | 102 | 4.4 | 6
10 | COc1cccn(-c2ccc(N[C@H]3CC[C@H](Nc4nc5cccnc5s4)C3)nc2)c1=O [Example 21, 3-Methoxy-6′-(((1S,3S)-3-(thiazolo[5,4-b]pyridin-2-ylamino)cyclopentyl)amino)-2H-[1,3′-bipyridin]-2-one] | > 40000 | > 10 | 100 | 1.5 | 0.5
11 | O=c1ccccn1-c1ccc(N[C@H]2CC[C@H](Nc3nc4c(Br)ccnc4[nH]3)C2)nc1 [Example 73, 6′-(((1S,3S)-3-((7-Bromo-3H-imidazo[4,5-b]pyridin-2-yl)amino)cyclopentyl)amino)-2H-[1,3′-bipyridin]-2-one] | > 40000 | 0.192 | 280 | 4.7 | 5
12 | O=c1c(Cl)cccn1-c1ccc(N[C@H]2CC[C@H](Nc3nc4cccnc4s3)C2)nc1 [Example 24, 3-Chloro-6′-(((1S,3S)-3-(thiazolo[5,4-b]pyridin-2-ylamino)cyclopentyl)amino)-2H-[1,3′-bipyridin]-2-one] | 13900 | > 10 | 76 | 0.7 | 0.1
13 | Cn1ccc(=O)n(-c2ccc(N[C@H]3CC[C@H](Nc4nc5cccnc5s4)C3)nc2)c1=O [Example 82, 1-Methyl-3-(6-(((1S,3S)-3-(thiazolo[5,4-b]pyridin-2-ylamino)cyclopentyl)amino)pyridin-3-yl)pyrimidine-2,4(1H,3H)-dione] | > 40100 | > 10 | 124 | 2.3 | 1
14 | Cn1c(=O)n(-c2ccc(N[C@H]3CC[C@H](Nc4nc5cccnc5o4)C3)nc2)c2ncccc21 [Example 18, 1-Methyl-3-(6-(((1S,3S)-3-(oxazolo[5,4-b]pyridin-2-ylamino)cyclopentyl)amino)pyridin-3-yl)-1,3-dihydro-2H-imidazo[4,5-b]pyridin-2-one] | > 40000 | > 10 | 52 | 2.3 | 3
15 | COc1cccc(F)c1-c1ccc(N[C@H]2CC[C@H](Nc3nc4cccnc4[nH]3)C2)nc1 [Example 67, (1S,3S)—N^1-(5-(2-Fluoro-6-methoxyphenyl)pyridin-2-yl)-N^3-(3H-imidazo[4,5-b]pyridin-2-yl)cyclopentane-1,3-diamine] | 3980 | > 10 |  | 18.1 | 57
16 | O=c1[nH]c2ccsc2c(=O)n1-c1ccc(N[C@H]2CC[C@H](Nc3nc4cccnc4s3)C2)nc1 [Example 83, 3-(6-(((1S,3S)-3-(Thiazolo[5,4-b]pyridin-2-ylamino)cyclopentyl)amino)pyridin-3-yl)thieno[3,2-d]pyrimidine-2,4(1H,3H)-dione] | > 40100 | > 10 | 79 | 0.5 | 0.1
17 | N#Cc1cccn(-c2ccc(N[C@H]3CC[C@H](Nc4nc5cccnc5o4)C3)nc2)c1=O [Example 15, 6′-(((1S,3S)-3-(Oxazolo[5,4-b]pyridin-2-ylamino)cyclopentyl)amino)-2-oxo-2H-[1,3′-bipyridine]-3-carbonitrile] | > 40000 | > 10 | 76 | 3.1 | 3
18 | CN1C(=O)CN(c2ccc(N[C@H]3CC[C@H](Nc4nc5cccnc5[nH]4)C3)nc2)C1=O [Example 37, 1-(6-(((1S,3S)-3-((3H-Imidazo[4,5-b]pyridin-2-yl)amino)cyclopentyl)amino)pyridin-3-yl)-3-methylimidazolidine-2,4-dione] | > 40000 | > 10 | 127 | 4.4 | 3
